Laboratory results from PMC5796027, “Thiopurine Drugs Repositioned as Tyrosinase Inhibitors” (International Journal of Molecular Sciences, 2017).
“Also recorded” adds a separate entry of the source. Blank lines part the entries; values can stand above or below the compound they belong to.

Tests used:
[1] = target: T1, mushroom tyrosinase (Agaricus bisporus, UniProt C7FF04); test: Mushroom tyrosinase enzyme inhibition assay (dopachrome absorbance at 475 nm); format: biochemical; conditions: for inhibition of mushroom tyrosinase (in words): enzyme assay with 0.01% Triton X-100; for LE, ligand efficiency: −1.37 × (Log10Ki)/HA, HA = number of heavy atoms
Description: (§1) Enzyme activity and kinetics experiments with inhibitors—All of the reagents used in this study were purchased from ChemBridge (San Diego, CA, USA), Sigma-Aldrich (St. Louis, MO, USA), or Tokyo Chemical Industry (Tokyo, Japan). The reaction solution for the enzyme assay was prepared with 200 nM mushroom tyrosinase and inhibitors in phosphate-buffered saline (PBS), containing 5% dimethyl sulphoxide and 0.01% (w/v) Triton X-100. After incubating the mixture at 30 °C for 10 min, 500 μM L-tyrosine was added as the substrate. […] The IC50 was evaluated by analysing different concentrations of each inhibitor. The inhibitory constants (Ki) were converted from the IC50 values using the Km obtained from kinetics experiments and substrate concentration based on the Cheng–Prusoff equation [60]. A series of substrates at concentrations of 0.25, 0.33, 0.4, 0.5, 0.67, and 1 mM were used to obtain the respective velocities (V) for enzyme inhibitory kinetics. The concentrations of each inhibitor were varied and comprised the range that included the IC50 value. Four models (competitive, uncompetitive, non-competitive, and mixed) that were derived from the Michaelis-Menten equation were used to fit the kinetic parameters, maximum velocity (Vmax), Michaelis constant (Km), and the dissociation constants between the substrate-free enzyme and inhibitor (Kic) and the substrate-bound enzyme and inhibitor (Kiu). The data from all the concentrations of the substrate and inhibitor were simultaneously fitted nonlinearly by minimising the χ^2 value, defined as the sum of the squared deviations between experimental and fitted values for each model. The appropriate model was selected based on the F-test with χ^2 values from the four models, coupled with the extraction of the related parameters. All of the fittings and statistical analyses in this study were computed by using MATLAB® (MathWorks, Natick, MA, USA).
Target sequence in this assay (C7FF04 1-392): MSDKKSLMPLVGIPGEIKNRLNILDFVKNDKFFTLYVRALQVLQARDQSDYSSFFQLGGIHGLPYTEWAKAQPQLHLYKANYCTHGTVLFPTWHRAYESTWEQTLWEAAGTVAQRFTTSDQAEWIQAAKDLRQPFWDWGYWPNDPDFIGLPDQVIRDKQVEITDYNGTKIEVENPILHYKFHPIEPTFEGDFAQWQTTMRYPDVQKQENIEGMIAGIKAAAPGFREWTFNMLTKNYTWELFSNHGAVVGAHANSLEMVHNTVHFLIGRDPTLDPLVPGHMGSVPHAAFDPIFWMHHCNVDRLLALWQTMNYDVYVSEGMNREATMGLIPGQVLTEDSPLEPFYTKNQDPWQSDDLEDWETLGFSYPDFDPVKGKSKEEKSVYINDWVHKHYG

[2] = set-up: method as in PMID 22587354, PMID 18551414, PMID 15667143; conditions: extracted from the ZINC database ref 33,34,35; cited from earlier work
[3] = test system: melanin contents; set-up: method as in PMID 23123645, PMID 23411395, PMID 22901670; conditions: higher concentrations (>100 μM) ref 44,45,46; cited from earlier work
[4] = test system: B16F10 murine melanoma cells; test: Melanin content assay in B16F10 cells; format: cell-based; conditions: 10, 20 and 50 μM tested, 48 h
Description: (§2) Cell-based activity assays with inhibitors—The melanin content and MTT conversion were measured in B16F10 murine melanoma cells that were purchased from the Korean Cell Line Bank (Seoul, Korea). When the density of B16F10 cells reached 1 × 10^5 cells, the test inhibitors (10, 20, and 50 μM) and 3-isobutyl-1-methylxanthine (IBMX, 100 μM) were added, and the cells were incubated for 48 h. The amount of melanin released into the extracellular area was quantified by measuring the absorbance at 405 nm, and was subsequently expressed as a percentage relative to the untreated control. The change in the reduction of the MTT dye into formazan in the cell was quantitatively interpreted as the cellular toxicity induced by the inhibitor. The inhibition of tyrosinase was also estimated using the B16F10 cell lysates, as described previously [28]. In brief, the cells were lysed in PBS supplemented with 1% (w/v) Triton X-100, centrifuged at 14,000 g for 30 min, and then the supernatants were dialysed to remove Triton X-100. After adding 500 μM L-DOPA and the inhibitors (10, 20, and 50 μM) to the prepared lysates, the change in absorbance over time at 475 nm was measured. The decrease in absorbance was calculated relative to the absorbance of the untreated controls.

[5] = target: T2, mammalian tyrosinase (Mus musculus, UniProt P11344); test: Tyrosinase inhibition in B16F10 cell lysates (L-DOPA substrate); format: biochemical, murine; conditions: 10, 20, 50 μM inhibitor, 500 μM L-DOPA
T2 construct: we performed an enzymatic assay with melanoma B16F10 cell lysates; endogenous in cells; host or cells: B16F10 murine melanoma cells (Korean Cell Line Bank), Triton X-100 lysate, dialysed supernatant
T2 sequence (P11344 19-533): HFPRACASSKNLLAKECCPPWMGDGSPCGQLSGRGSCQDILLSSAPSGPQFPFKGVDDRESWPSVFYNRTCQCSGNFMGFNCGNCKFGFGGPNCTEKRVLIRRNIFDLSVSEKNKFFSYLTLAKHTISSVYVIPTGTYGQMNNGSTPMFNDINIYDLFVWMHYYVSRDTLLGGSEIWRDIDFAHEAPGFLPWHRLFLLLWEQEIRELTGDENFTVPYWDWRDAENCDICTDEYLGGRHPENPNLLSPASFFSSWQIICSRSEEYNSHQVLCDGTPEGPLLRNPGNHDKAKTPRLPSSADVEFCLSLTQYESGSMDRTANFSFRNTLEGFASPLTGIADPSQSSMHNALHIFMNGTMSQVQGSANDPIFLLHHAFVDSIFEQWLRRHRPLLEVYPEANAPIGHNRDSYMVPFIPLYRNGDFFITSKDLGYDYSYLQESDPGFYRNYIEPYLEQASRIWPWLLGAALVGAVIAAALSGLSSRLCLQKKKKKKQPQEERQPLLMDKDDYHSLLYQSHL
Description: as §2

[6] = target: T1, mushroom tyrosinase; test: Differential scanning fluorimetry (DSF); format: binding; conditions: 0.5 μM protein, 200 μM inhibitor, control without inhibitor 51.8 °C
Description: DSF—The stability of mushroom tyrosinase in the presence and absence of inhibitors was assessed using DSF using a […] (RT-PCR) CFX96 system (BioRad, Hercules, CA, USA). […] The Tm value, which is the mid-point melting temperature, was calculated from a nonlinear fit of the temperature-dependent fluorescent intensity I(T), expressed as the Boltzmann equation: I(T)=LL+UL−LL/1+exp(Tm−T/a), where UL and LL are related to the baseline and top of the curves, respectively, and a is the steepness of the slope. Only data in the range of 35–65 °C were used for the fitting.
Target sequence in this assay (C7FF04 1-392 limits assumed): as the sequence (C7FF04 1-392) above

[7] = test system: human hepatocytes; conditions: up to several tens of μM ref 43; cited from earlier work
[8] = target: T1, mushroom tyrosinase; test: Enzyme inhibitory kinetics with nonlinear fitting of Michaelis-Menten models; format: biochemical; conditions: for Mechanism of inhibition: model chosen by χ2 and F-test among competitive, uncompetitive, non-competitive, mixed; for Ki: nonlinear data fitting, competitive model, read-out: kinetically fitted Ki
Description: as §1
Target sequence in this assay (C7FF04 1-392): as the sequence (C7FF04 1-392) above

[9] = target: tyrosinase; conditions: cited from earlier work; for reported inhibition of tyrosinase through direct binding: literature survey ref 36,37

Compound: NC(CC(=O)O)C(=O)O (racemic) [D,L-aspartic acid]
inhibition of mushroom tyrosinase (in words) [1]: only thioguanine exerted inhibitory action

Compound: Cn1cnc([N+](=O)[O-])c1Sc1ncnc2nc[nH]c12 [Azathioprine, azathioprine]
Ki [1]: > 1000 µM
inhibition of mushroom tyrosinase (in words) [1]: but not azathioprine, exerted an inhibitory activity; also recorded: poor inhibitor
LogP [2]: 1.15

Compound: Nc1nc2nc[nH]c2c(=O)[nH]1 [Guanine, guanine]
Ki [1]: > 1000 µM
inhibition of mushroom tyrosinase (in words) [1]: only thioinosine inhibited tyrosinase
LogP [2]: −0.77

Compound: O=c1[nH]cnc2nc[nH]c12 [Hypoxanthine, hypoxanthine]
Ki [1]: > 1000 µM
inhibition of mushroom tyrosinase (in words) [1]: only thioinosine inhibited tyrosinase
LogP [2]: −0.35

Compound: O=c1cc(CO)occ1O [Kojic acid, kojic acid]
LogP [2]: −0.16
decrease of melanin contents [3]: meaningful decreases
reduction of melanin content (in words) [4]: marginal

inhibition of tyrosinase in B16F10 cell lysates (in words) [5]: highest inhibition
Tm of tyrosinase in complex with inhibitor [6]: 49.0 ± 0.2 °C
Tm of tyrosinase in complex with inhibitor ([6]; listed as mercaptopurine): 49.0 °C
Ki ([1]; read-out: Ki): 16 µM
LE, ligand efficiency [1]: 0.61
Mechanism of inhibition [8]: Competitive
Mechanism of inhibition ([8]; listed as mercaptopurine): competitive inhibitors
Ki [8]: 29 µM
Compound: Sc1ncnc2nc[nH]c12 [Mercaptopurine, mercaptopurine]
inhibition of tyrosinase in B16F10 cell lysates (in words) ([5]; listed as mercaptopurine): inhibited melanin syntheses in a concentration-dependent manner
cytotoxicity in human hepatocytes [7]: less cytotoxic up to several tens of μM
LogP [2]: 1.00
reduction of melanin content (in words) [4]: less effective

Compound: N[C@@H](CSCC(=O)O)C(=O)O [S-carboxymethyl-L-cysteine]
inhibition of mushroom tyrosinase (in words) [1]: only thioguanine exerted inhibitory action

Compound: Nc1nc2nc[nH]c2c(=S)[nH]1 [Thioguanine, thioguanine]
inhibition of tyrosinase in B16F10 cell lysates (in words) [5]: inhibited melanin syntheses in a concentration-dependent manner
Tm of tyrosinase in complex with inhibitor [6]: 49.8 ± 0.2 °C
Tm of tyrosinase in complex with inhibitor ([6]; listed as thioguanine): 49.8 °C
inhibition of mushroom tyrosinase (in words) [1]: only thioguanine exerted inhibitory action
Ki ([1]; read-out: Ki): 52 µM
LogP [2]: 0.60
Mechanism of inhibition [8]: Competitive
Mechanism of inhibition ([8]; listed as thioguanine): competitive inhibitors
Ki [8]: 40 µM
reduction of melanin content (in words) [4]: markedly reduced the melanin content at 20 and 50 μM

Tm of tyrosinase in complex with inhibitor [6]: 51.0 ± 0.2 °C
Tm of tyrosinase in complex with inhibitor ([6]; listed as thioinosine): 51.0 °C
Ki ([1]; read-out: Ki): 8 µM
LE, ligand efficiency [1]: 0.34
Mechanism of inhibition [8]: Competitive
Mechanism of inhibition ([8]; listed as thioinosine): competitive inhibitors
Ki [8]: 14 µM
Compound: OC[C@H]1O[C@@H](n2cnc3c(S)ncnc32)[C@H](O)[C@@H]1O [Thioinosine, thioinosine]
inhibition of tyrosinase in B16F10 cell lysates (in words) [5]: inhibited melanin syntheses in a concentration-dependent manner
LogP [2]: −0.90
reduction of melanin content (in words) [4]: markedly reduced the melanin content at 20 and 50 μM

Compound: Nn1c(S)nnc1-c1ccncc1 [ZINC509439, 4-amino-5-(4-pyridyl)-4H-1,2,4-triazole-3-thiol]
Ki ([9]; BindingDB entry ref 48, read-out: reported Ki): 1 µM

Compound: O=Cc1ccc(O[C@@H]2O[C@H](CO)[C@@H](O)[C@@H](O)[C@H]2O)cc1 [ZINC5234422, 4-(β-D-allopyranosyloxy)benzaldehyde]
IC50 ([9]; BindingDB entry ref 48, read-out: half-maximal inhibitory concentration (IC50)): 94 µM

Compound: Nc1ccc(C(=O)NCC(=O)O)cc1 [aminohippuric acid]
reported inhibition of tyrosinase through direct binding [9]: has been reported

Compound: O=C(O)c1cc(-c2ccc(F)cc2F)ccc1O [diflunisal]
reported inhibition of tyrosinase through direct binding [9]: has been reported

Compound: O=C(O)c1cccnc1Nc1cccc(C(F)(F)F)c1 [nifumic acid]
inhibition of mushroom tyrosinase (in words) [1]: only thioguanine exerted inhibitory action

Compound: CCCN(CCC)S(=O)(=O)c1ccc(C(=O)O)cc1 [probenecid]
inhibition of mushroom tyrosinase (in words) [1]: only thioguanine exerted inhibitory action

Compound: COc1ccc(/C=C/C(=O)Nc2ccccc2C(=O)O)cc1OC [tranilast]
inhibition of mushroom tyrosinase (in words) [1]: only thioguanine exerted inhibitory action
